From PMC12752627, “Discovery of a Potent and Selective TEAD Degrader with Durable Degradation Activity” (Advanced Science, 2025)

What was measured:
TEAD1 [1] = target: T1, TEAD1 (Homo sapiens, UniProt P28347); experiment: Immunoblot of TEAD1 degradation in TEAD1-mNeonGreen fusion NCI-H1299 cells; format: cell-based; design: endogenous in cells; host or cells: NCI-H1299 (TEAD1-mNeonGreen knock-in); settings: 100 nM, TEAD1-mNeonGreen fusion NCI-H1299 cells
Description: (§1) Immunoblotting was carried out as previously described.^[ [29] ^] Cells were seeded in 6‐well plates (Yeasen, #84011ES50) at a density of 1 million cells per well. The following day, cells were treated with compounds at the required concentrations, with the DMSO concentration kept below 0.4‰ to prevent toxic effects on the cells. The collected cell pellets were washed three times with PBS (Meilunbio, #MA0015) and resuspended in 120 µL of RIPA lysis buffer (Meilunbio, #MA0151) containing 1% protease inhibitor (Meilunbio, #MB2678‐2). The cells were then sonicated on ice and centrifuged at 12 000 rpm for 15 min at 4 °C to remove cellular debris. Protein concentrations were determined using the BCA Protein Quantification Kit (Meilunbio, #MA0082‐1). The protein samples were normalized, boiled at 99 °C for 10 min, and then subjected to electrophoresis on a 10% SDS‐PAGE gel. The separated protein bands were transferred to nitrocellulose membranes, blocked with TBST containing 5% BSA, and incubated with the indicated primary antibodies. Finally, the blots were imaged using an Amersham Typhoon NIR imager.
Target sequence in this assay (P28347 whole entry, the tested form may be a part): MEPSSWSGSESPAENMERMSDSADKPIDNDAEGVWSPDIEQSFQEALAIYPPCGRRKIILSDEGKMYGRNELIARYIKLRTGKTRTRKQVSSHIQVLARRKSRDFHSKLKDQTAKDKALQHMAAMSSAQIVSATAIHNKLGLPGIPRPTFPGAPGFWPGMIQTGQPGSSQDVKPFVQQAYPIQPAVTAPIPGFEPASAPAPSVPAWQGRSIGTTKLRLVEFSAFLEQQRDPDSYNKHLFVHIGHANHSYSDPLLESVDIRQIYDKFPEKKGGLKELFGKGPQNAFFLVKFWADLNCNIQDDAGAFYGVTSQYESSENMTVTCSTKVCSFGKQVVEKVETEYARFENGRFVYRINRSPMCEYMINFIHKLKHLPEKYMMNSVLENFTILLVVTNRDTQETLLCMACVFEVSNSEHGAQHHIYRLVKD
Target sequence in this assay (Q96SW2 whole entry, further chain, the tested form may be a part): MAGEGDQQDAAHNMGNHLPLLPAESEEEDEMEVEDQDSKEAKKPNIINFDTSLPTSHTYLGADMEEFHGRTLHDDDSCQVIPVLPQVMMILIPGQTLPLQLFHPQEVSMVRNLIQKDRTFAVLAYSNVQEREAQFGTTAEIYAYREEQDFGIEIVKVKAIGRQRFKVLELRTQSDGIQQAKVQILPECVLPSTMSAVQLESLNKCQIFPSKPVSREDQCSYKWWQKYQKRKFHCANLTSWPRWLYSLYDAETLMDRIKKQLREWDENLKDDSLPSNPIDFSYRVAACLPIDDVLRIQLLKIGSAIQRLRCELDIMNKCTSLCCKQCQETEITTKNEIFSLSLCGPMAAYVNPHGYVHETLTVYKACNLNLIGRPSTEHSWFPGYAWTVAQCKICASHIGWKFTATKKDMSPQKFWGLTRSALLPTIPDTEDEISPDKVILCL
Target sequence in this assay (Q16531 2-1140 partner limits assumed): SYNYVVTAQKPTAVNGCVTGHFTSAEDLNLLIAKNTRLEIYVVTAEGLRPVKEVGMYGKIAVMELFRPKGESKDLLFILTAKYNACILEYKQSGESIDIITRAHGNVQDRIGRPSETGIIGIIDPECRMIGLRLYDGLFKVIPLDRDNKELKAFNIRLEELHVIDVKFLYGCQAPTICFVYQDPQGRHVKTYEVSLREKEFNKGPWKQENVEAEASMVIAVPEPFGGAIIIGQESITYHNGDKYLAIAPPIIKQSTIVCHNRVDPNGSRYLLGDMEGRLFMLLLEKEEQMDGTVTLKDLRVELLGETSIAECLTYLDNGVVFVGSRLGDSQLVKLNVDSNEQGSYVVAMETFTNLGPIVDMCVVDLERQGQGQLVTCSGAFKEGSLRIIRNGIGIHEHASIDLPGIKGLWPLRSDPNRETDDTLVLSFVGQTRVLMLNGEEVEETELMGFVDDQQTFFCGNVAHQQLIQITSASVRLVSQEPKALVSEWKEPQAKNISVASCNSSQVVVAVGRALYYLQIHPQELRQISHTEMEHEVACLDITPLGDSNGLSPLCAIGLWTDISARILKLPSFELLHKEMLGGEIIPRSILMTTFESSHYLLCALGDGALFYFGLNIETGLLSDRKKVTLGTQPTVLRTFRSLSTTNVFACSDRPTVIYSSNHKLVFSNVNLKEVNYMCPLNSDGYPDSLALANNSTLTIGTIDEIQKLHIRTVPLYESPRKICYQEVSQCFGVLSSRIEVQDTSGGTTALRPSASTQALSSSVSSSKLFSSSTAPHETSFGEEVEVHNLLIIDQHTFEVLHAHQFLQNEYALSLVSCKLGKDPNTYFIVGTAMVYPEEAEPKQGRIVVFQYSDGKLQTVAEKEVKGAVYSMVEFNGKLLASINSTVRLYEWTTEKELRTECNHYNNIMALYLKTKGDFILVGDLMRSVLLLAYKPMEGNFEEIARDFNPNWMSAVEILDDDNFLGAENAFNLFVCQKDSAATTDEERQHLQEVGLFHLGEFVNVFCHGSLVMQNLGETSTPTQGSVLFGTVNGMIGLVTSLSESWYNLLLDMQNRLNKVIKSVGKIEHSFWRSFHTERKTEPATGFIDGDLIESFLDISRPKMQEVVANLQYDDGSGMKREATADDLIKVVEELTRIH

ES2 xenograft = ES2 xenograft efficacy study; format: in vivo, BALB/c nude mice; settings: 10 and 30 mg/kg
Description: Animal experiments were conducted by Medsyin (Shanghai) Co., Ltd. The experimental protocol was approved by the IACUC of the company (No.: PZWH‐2025031003) and strictly adhered to the guidelines of the AAALAC. The specific procedures are as follows: 5 × 10^6 MSTO‐211H cells or ES2 cells were suspended in 100 µL of a mixture of PBS and Matrigel and inoculated subcutaneously into the right axilla of 6‐week‐old BALB/c nude mice. Drug administration was initiated on day 7 after cell inoculation (when the average tumor volume was ≈150 mm^3). The experiment was divided into four groups with 6 mice in each group. The specific grouping and administration methods are as follows: control group, KY‐001 group (10 mg kg^−1, p.o.), KG‐FP‐003 (10 mg kg^−1 or 30 mg kg^−1, i.p.). The administration routes included intraperitoneal injection and intragastric administration, once a day for 21 consecutive days. During the experiment, the body weight and tumor volume of the mice were measured twice a week. At the end of the experiment, the mice were sacrificed and tumor tissues were collected.

CRBN-DDB1 = CRBN-DDB1 (Homo sapiens, UniProt Q96SW2); experiment: CRBN binding assay, biochemical (HTRF); settings: recombinant CRBN-DDB1, 1 h, read-out: Biochemical CRBN Binary Binding IC50 (nM ± SD)
CRBN-DDB1, sequence (Q96SW2 whole entry): as the sequence (Q96SW2 whole entry, further chain, the tested form may be a part) above
Description: Next, 400 nL of compound solution (initial concentration 10 µM, followed by a three‐fold gradient dilution) was dispensed into the wells using the positive‐pressure‐based I‐DOT dispenser. After 1 h of incubation at room temperature, the HTRF signal was measured using an Envision plate reader (Revvity). Finally, the data were analyzed using non‐linear regression curves in GraphPad Prism 9.5 software.

A172 cells = experiment: Cell viability assay (CTG, 72 h) A172; format: cell-based; settings: Homo sapiens, A 172, 72 h, 3-day compound treatment
Description: Cells were seeded at a density of 1000 cells per well in 96‐well flat‐bottomed cell culture plates and cultured overnight at 37 °C with 5% CO2 to allow for cell attachment. The following day, different concentrations of compounds were added using an I‐DOT dispenser. After 72 h, 25 µL of CellTiter‐Meiluncell Luminescent Cell Viability Reagent (Meilunbio, #PWL111‐2) was added and incubated for 15 min at room temperature. Luminescence signals were then measured using an Envision plate reader (Revvity). Data were analyzed using GraphPad Prism 9.5 software.^[ [30] ^]

TEAD1/3, TAZ = experiment: Immunoblot in A172 cells; format: cell-based; settings: 24 h
Description: as §1

TEAD4 = target: T2, TEAD4 (Homo sapiens, UniProt Q15561); experiment: HiBiT degradation assay, HEK293T HiBiT-TEAD4; format: cell-based; settings: 6 h
T2 construct: endogenous in cells; host or cells: HEK293T HiBiT knock-in
T2 sequence (Q15561 whole entry): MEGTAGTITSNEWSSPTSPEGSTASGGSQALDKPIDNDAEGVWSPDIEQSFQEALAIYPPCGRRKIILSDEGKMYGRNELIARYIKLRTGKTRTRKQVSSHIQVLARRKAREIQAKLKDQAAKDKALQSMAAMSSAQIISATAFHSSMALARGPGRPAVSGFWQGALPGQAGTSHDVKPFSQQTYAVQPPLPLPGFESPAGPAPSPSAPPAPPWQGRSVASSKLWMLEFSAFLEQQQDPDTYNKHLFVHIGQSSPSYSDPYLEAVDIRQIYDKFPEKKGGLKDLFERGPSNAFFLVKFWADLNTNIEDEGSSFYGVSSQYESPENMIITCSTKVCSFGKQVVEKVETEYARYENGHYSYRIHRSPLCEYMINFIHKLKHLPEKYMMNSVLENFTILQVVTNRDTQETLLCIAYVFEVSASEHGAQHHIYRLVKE
Description: (§2) HiBiT cells were inoculated into 96‐well flat‐bottomed tissue culture plates at a density of 50 000 cells per well, followed by adding degraders into the wells using the I‐DOT dispenser. After 6 h of incubation, the cells were lysed and assayed for degradation using the Nano‐Glo HiBiT Lysis Assay System (Promega, #N3030). Luminescence signals were read using an Envision plate reader (Revvity) and the data were analyzed using GraphPad Prism 9.5 software.
(§3) The ribonucleoprotein (RNP) complex was prepared by mixing 2 µg of NLS‐Cas9‐EGFP nuclease (Novoprotein, #E379‐01A), 50 pmol of sgRNA, 10 µL of electrotransfer solution, and 50 pmol of designed donor DNA, then incubated for 10 min at room temperature. One million HEK293T cells were resuspended in 10 µL of electrotransfection solution and mixed with 10 µL of the RNP complex. Electroporation was performed using a Celetrix SP100 electroporator at 480 V. After electroporation, the cells were transferred to antibiotic‐free DMEM complete medium for overnight culture. The following day, EGFP‐positive cells were sorted using a Sony MA 900 cell sorter, plated in a 96‐well cell culture plate (Servicebio, #CCP‐96H), and cultured for 4 weeks. After this period, positive clones were screened using the Nano‐Glo HiBiT Lytic Detection system (Promega, #N3030).

TEAD2 = target: T3, TEAD2 (Homo sapiens, UniProt Q15562); experiment: HiBiT degradation assay, HEK293T HiBiT-TEAD2; format: cell-based; settings: 6 h
T3 construct: endogenous in cells; host or cells: HEK293T HiBiT knock-in
T3 sequence (Q15562 whole entry): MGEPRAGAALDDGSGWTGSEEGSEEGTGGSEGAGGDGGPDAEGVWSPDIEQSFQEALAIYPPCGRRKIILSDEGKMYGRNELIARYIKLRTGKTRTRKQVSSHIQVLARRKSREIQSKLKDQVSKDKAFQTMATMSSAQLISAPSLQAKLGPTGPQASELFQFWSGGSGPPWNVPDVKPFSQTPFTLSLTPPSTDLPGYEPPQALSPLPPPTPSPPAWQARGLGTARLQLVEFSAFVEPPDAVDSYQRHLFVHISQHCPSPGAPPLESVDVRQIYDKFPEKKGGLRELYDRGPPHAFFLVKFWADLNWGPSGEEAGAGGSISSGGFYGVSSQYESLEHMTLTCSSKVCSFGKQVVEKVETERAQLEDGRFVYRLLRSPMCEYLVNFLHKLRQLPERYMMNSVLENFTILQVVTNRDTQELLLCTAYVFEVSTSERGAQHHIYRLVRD
Description: as §2, §3

TEAD1 [2] = target: T1, TEAD1; experiment: Immunoblot in wild-type / CRBN-knockout HEK293T cells and rescue experiment; format: cell-based; design: endogenous in cells; host or cells: HEK293T wild-type and CRBN-knockout; settings: 6 h treatment
Description: as §1
Target sequence in this assay (P28347 whole entry, the tested form may be a part): as the sequence (P28347 whole entry, the tested form may be a part) above

Compound: CNC(=O)c1cc2c(c(F)c1-c1c(Cl)c(F)cc3c1C[C@@](CN[C@H]1CC[C@H](C(=O)N4CCC(CC5CCN(C(=O)COc6ccc(N7CCC(=O)NC7=O)c(C)c6)CC5)CC4)CC1)(c1ccccc1)O3)[C@@H](O)[C@@H](C)C2 [KG-FP-003]
- Duration of sustained TEAD1 degradation (TEAD1 [1]): up to 12 days
- Tumor response in ES2 xenograft (ES2 xenograft): significant tumor regression
- IC50 (CRBN-DDB1): 591 ± 21 nM
- IC50 (A172 cells): 0.007 ± 0.006 µM
- Degradation of TEAD1 and TEAD3 by immunoblot (TEAD1/3, TAZ): complete degradation
- TAZ protein expression by immunoblot (TEAD1/3, TAZ): increased TAZ protein expression
- DC50 (TEAD4): 0.007 ± 0.005 µM
- TEAD4 Dmax (TEAD4): ≈ 90%
- Dmax (TEAD4; HEK-293T): 88 ± 6%
- DC50 (TEAD2): 0.068 ± 0.015 µM
- TEAD2 Dmax (TEAD2): over 80%
- Dmax (TEAD2; HEK-293T): 84 ± 5%
- TEAD degradation in CRBN-null HEK293T cells (TEAD1 [2]): minimal
